Earlier results as cited in patent US11103547B2, “Methods for disrupting biofilms” (priority 2016, dated 2021).

Tested on: MRSA biofilm
Settings: shown previously; positive control

CCCCCCCCCC(=O)N[C@@H](Cc1c[nH]c2ccccc12)C(=O)N[C@H](CC(N)=O)C(=O)N[C@@H](CC(=O)O)C(=O)N[C@@H]1C(=O)NCC(=O)N[C@@H](CCCN)C(=O)N[C@@H](CC(=O)O)C(=O)N[C@H](C)C(=O)N[C@@H](CC(=O)O)C(=O)NCC(=O)N[C@H](CO)C(=O)N[C@@H]([C@H](C)CC(=O)O)C(=O)N[C@@H](CC(=O)c2ccccc2N)C(=O)O[C@@H]1C [Daptomycin]
disruption of biomass biofilm of MRSA: disrupt biomass biofilm of MRSA
